Measurements from patent publication US6821991B2, “2-substituted thiazolidinones as β-3 adrenergic receptor agonists” (Wyeth, priority 2000, dated 2004).

How the values were obtained:
β3-adrenergic receptor = target: T1, β3-adrenergic receptor (Homo sapiens, UniProt P13945); assay: cAMP accumulation (SPA) in CHO cells transfected with human β3 adrenergic receptor; type: cell-based; details: for EC50: CHO cells expressing human β3-AR, cAMP, 30 min, 37° C., 10^-9 M to 10^-5 M; for IA(β3): maximal response relative to maximal response of isoproterenol at 10^-5 M
T1 construct: Full length β3 AR clones (402 amino acids) containing the last 6 amino acids of hβ3-AR are prepared; expressed in transfected cells; host or cells: CHO (Chinese hamster ovary) cells
T1 sequence (P13945 whole entry): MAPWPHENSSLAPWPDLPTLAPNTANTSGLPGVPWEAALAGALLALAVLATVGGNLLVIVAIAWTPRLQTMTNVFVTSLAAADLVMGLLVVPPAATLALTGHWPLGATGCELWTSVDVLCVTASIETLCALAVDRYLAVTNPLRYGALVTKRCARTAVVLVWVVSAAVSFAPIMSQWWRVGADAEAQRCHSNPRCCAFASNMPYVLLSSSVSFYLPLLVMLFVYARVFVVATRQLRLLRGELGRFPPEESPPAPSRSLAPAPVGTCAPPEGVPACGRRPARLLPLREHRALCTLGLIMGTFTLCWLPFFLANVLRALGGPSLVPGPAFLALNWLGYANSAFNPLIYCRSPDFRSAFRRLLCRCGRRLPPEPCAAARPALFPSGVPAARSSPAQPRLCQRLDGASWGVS
Experimental: The ability of compounds of this invention to treat or inhibit disorders related to insulin resistance or hyperglycemia was established with representative compounds of this invention in the following standard pharmacological test procedures, which measured the binding selectivity to the β1, β2, and β3 adrenergic receptors. Binding to the receptors was measured in Chinese Hamster ovary (CHO) cells that were transfected with adrenergic receptors.
Cloning of Human β3-AR Genomic DNA: CDNA was constructed by ligating four polymerase chain reaction (PCR) products using the following primers: an ATG-Narl fragment, sense primer 5′-[…]3′, and anti-sense primer 5′[…]3′; a Narl-Accl fragment, 5′[…]3′ as sense and 5′[…]3′ as anti-sense primer; an Accli-Styl fragment, sense primer 5′[…]3′ and anti-sense primer 5′[…]3′ and a Styl-TAG fragment, with sense primer 5′[…]3′ and anti-sense primer 5′[…]3′. The corresponding primer sequences are described in Mantzoros, C. […] The four fragments are ligated into a pUC 18 plasmid (Gibco-BRL) and sequenced.
Binding Procedure: Clones expressing receptor levels of 70 to 110 fmoles/mg protein were used in the test procedures. CHO cells were grown in 24-well tissue culture plates in Dulbecco's Modified Eagle Media with 10% fetal bovine serum, MEM non-essential amino acids, Penicillin-Streptompycin and Geneticin. On the day of test procedure, growth medium was replaced with preincubation media (Dulbecco's Modified Eagle Media) and incubated for 30 minutes at 37° C. […] Test compounds were tested over a concentration range of 10^−9 M to 10^−5 M for β3 cells and 10^−8 to 10^−4 M for β1 and β2 transfected cells. Isoproterenol (10^−5 M) was used as an internal standard for comparison of activity. Cells were incubated at 37° C. on a rocker for 30 min with the β3 cells and 15 min for β1 and β2 cells. Incubation was stopped with the addition of 0.2N HCl and neutralized with 2.5N NaOH. The plates, containing the cells and neutralized media, were stored at −20 degrees celsius until ready to test for cAMP using the SPA test kit (Amersham).
Data Analysis and Results: Data collected from the SPA test procedure were analyzed as per cent of the maximal isoproterenol response at 10^−5 M. Activity curves were plotted using the SAS statistical and graphics software.

Row | Structure (SMILES) | EC50 (β3-adrenergic receptor) [nM] | IA(β3) (β3-adrenergic receptor) | melting point
1 | CNC1=NC(=O)C(=Cc2ccc(N3CCC(NC[C@H](O)COc4cccc5[nH]c(=O)[nH]c45)CC3)cc2)S1 [Example 1, 4-((2S)-2-Hydroxy-3-{1-[4-(2-methylamino-4-oxo-4H-thiazol-5-ylidenemethyl)-phenyl]-piperidin-4-ylamino}-propoxy)-1,3-dihydrobenzoimidazol-2-one] | 9 | 1.0 | > 160 °C (dec.)
2 | O=C1N=C(NCCN2CCOCC2)SC1=Cc1ccc(N2CCC(NC[C@H](O)COc3cccc4[nH]c(=O)[nH]c34)CC2)cc1 [Example 2, 4-[(2S)-2-Hydroxy-3-(1-{4-[2-(2-morpholin-4-ylethylamino)-4-oxo-4H-thiazol-5-ylidenemethyl]-phenyl}-piperidin-4-ylamino)-propoxy]-1,3-dihydrobenzoimidazol-2-one] | 22 | 1.0 | > 140 °C (dec.)
3 | O=C1N=C(NC2CCN(Cc3ccccc3)CC2)SC1=Cc1ccc(N2CCC(NC[C@H](O)COc3cccc4[nH]c(=O)[nH]c34)CC2)cc1 [Example 3, 4-[(2S)-3-(1-{4-[2-(1-Benzyl-piperidin-4-ylamino)-4-oxo-4H-thiazol-5-ylidenemethyl]-phenyl}-piperidin-4-ylamino)-2-hydroxy-propoxy]-1,3-dihydro-benzoimidazol-2-one] | 30 | 0.52 | > 165 °C (dec.)
4 | O=C1N=C(NC2CCN(Cc3ccccc3)CC2)SC1=Cc1ccc(N2CCC(NC[C@H](O)COc3ccc(O)cc3)CC2)cc1 [Example 4, 2-(1-Benzyl-piperidin-4-ylamino)-5-(4-{(2S)-4-[2-hydroxy-3-(4-hydroxy-phenoxy)-propylamino]-piperidin-1-yl}-benzylidene)-thiazol-4-one] | 230 | 0.6 | > 175 °C (dec.)
5 | O=C(O)CCNC1=NC(=O)C(=Cc2ccc(N3CCC(NC[C@H](O)COc4cccc5[nH]c(=O)[nH]c45)CC3)cc2)S1 [Example 9, 3-[5-(4-{4-[(2S)-2-Hydroxy-3-(2-oxo-2,3-dihydro-1H-benzoimidazol-4-yloxy)-propylamino]-piperidin-1-yl}-benzylidene)-4-oxo-4,5-dihydro-thiazol-2-ylamino]-propionic acid] | 7 | 0.81 | –
6 | CN1CCN(C2=NC(=O)C(=Cc3ccc(N4CCC(NC[C@H](O)COc5cccc6[nH]c(=O)[nH]c56)CC4)cc3)S2)CC1 [Example 19, 4-[(2S)-2-Hydroxy-3-(1-{4-[2-(4-methyl-piperazin-1-yl)-4-oxo-4H-thiazol-5-ylidenemethyl]-phenyl}-piperidin-4-ylamino)-propoxy]-1,3-dihydro-benzoimidazol-2-one] | – | – | > 150 °C (dec.)
7 | Cl.O=C1N=C(N2CCCCC2)SC1=Cc1ccc(OCCNC[C@H](O)COc2ccc(O)cc2)cc1 [Example 31, 5-(4-{2-[(2S)-2-Hydroxy-3-(4-hydroxy-phenoxy)-propylamino]-ethoxy}-benzylidene)-2-piperidin-1-yl-thiazol-4-one hydrochloride salt] | 210 | 0.84 | –
8 | Cl.O=C1N=C(N2CCCCC2)SC1=Cc1ccc(OCCNC[C@H](O)COc2ccccc2)cc1 [Example 32, 5-{4-[2-((2S)-2-Hydroxy-3-phenoxy-propylamino)-ethoxy]-benzylidene}-2-piperidin-1-yl-thiazol-4-one hydrochloride salt] | 88 | 0.33 | –
9 | CS(=O)(=O)Nc1cc(C(O)CNCCOc2ccc(C=C3SC(N4CCCCC4)=NC3=O)cc2)ccc1O (stereo not drawn) [Example 33, N-[2-Hydroxy-5-(1-hydroxy-2-{2-[4-(4-oxo-2-piperidin-1-yl-4H-thiazol-5-ylidenemethyl)-phenoxy]-ethylamino}-ethyl)-phenyl]-methanesulfonamide] | 2 | 0.86 | –
